A short description of this series: solvent given as SMILES.

As to `CC1(C)C(/C=C/C2=C(Oc3ccc(CCN=C=S)cc3)C(=C/C=C3/N(CCCS(=O)(=O)[O-])c4ccccc4C3(C)C)/CCC2)=[N+](CCCS(=O)(=O)[O-])c2ccccc21`, the fluorescence lifetime (in CO) was found to be 0.873 ns.

As for `c1cc2ccc3ccc(OP4(Oc5ccc6ccc7cccc8ccc5c6c78)=NP(Oc5ccc6ccc7cccc8ccc5c6c78)(Oc5ccc6ccc7cccc8ccc5c6c78)=NP(Oc5ccc6ccc7cccc8ccc5c6c78)(Oc5ccc6ccc7cccc8ccc5c6c78)=N4)c4ccc(c1)c2c34`, the fluorescence lifetime (in ClCCl) was 2.5 ns.

In the case of `CCN(CC)c1ccc2cc(/C=C/c3ccccc3)c(=O)oc2c1`, where the note is “in CC#N”, the fluorescence lifetime came out at 2.25 ns.

As to `O=S(=O)(c1ccc(N(c2ccccc2)c2ccccc2)cc1)c1ccc(N(c2ccccc2)c2ccccc2)cc1`, the fluorescence lifetime is, setting by setting: (in Cc1ccccc1) 2.2 ns; (in O=P(c1ccccc1)(c1ccccc1)c1ccccc1Oc1ccccc1P(=O)(c1ccccc1)c1ccccc1) 3.5 ns.

`CCOC(=O)CN1C(=O)C2=C(c3ccc(C#N)cc3)N(CC(=O)OCC)C(=O)C2=C1c1ccccc1` yielded a fluorescence lifetime (in CC#N) of 5.78 ns, a fluorescence lifetime (in CS(C)=O) of 7.07 ns and a fluorescence lifetime (in Cc1ccccc1) of 4.24 ns.

`Cc1ccc2nc3c(=O)[nH]c(=O)[nH]c3nc2c1` registered a fluorescence lifetime (in CC#N) of 0.4 ns and a fluorescence lifetime (in ClCCCl) of 0.32 ns.

Consider `CCCCCCCCCCCCNc1cccc2[n+]1[B-](F)(F)n1c(c3cccc4cccc1c43)=N2`, for which the fluorescence lifetime (in ClCCl) came out at 2.5 ns.

For the setting “in C1CCOC1”, `Cc1ccc(-c2ccc(-c3ccc(-c4ccc(C)cc4)cc3/C(=C(/c3ccccc3)c3cc(-c4ccc(C)cc4)ccc3-c3ccc(-c4ccc(C)cc4)cc3)c3ccccc3)cc2)cc1` yielded a fluorescence lifetime of 8.6 ns.

For the compound `COc1ccc(-c2cc3c(cc2OC)-c2c(c4c(c5c2-c2cc(OC)c(-c6ccc(OC)cc6)cc2C5)C(=O)N(CCC(C)C)C4=O)C3)cc1`, for the setting “in C1CCOC1”, the fluorescence lifetime was 4.42 ns.

For the compound `CC1(C)c2ccccc2N(c2ccc(-c3nnc(-c4cc(-c5ccccc5)c(-c5ccccc5)c(-c5ccccc5)c4-c4ccccc4)o3)cc2)c2ccccc21`, the fluorescence lifetime (in c1ccc(-n2c(-c3c(-n4c5ccccc5c5ccccc54)cccc3-n3c4ccccc4c4ccccc43)nc3ccccc32)cc1) was 5.5 ns.

In the case of `NC(=O)C1=CN([C@H]2C[C@H](O)[C@@H](COP(=O)([O-])OP(=O)([O-])OC[C@H]3O[C@@H](n4cnc5c(N)ncnc54)C[C@@H]3O)O2)C=CC1`, the fluorescence lifetime (in O) worked out at 0.4 ns.

As for `Cc1cc(-c2cccc3ccccc23)cc(C)[o+]1`, the fluorescence lifetime (in ClCCl) came to 13.4 ns.

For the compound `C(#Cc1cccc2cc(-c3ccccc3)c3cc(-c4cc[b-]5c(c4)c(-c4ccccc4)cc4cccc(C#Cc6ccccc6)[n+]54)cc[b-]3[n+]12)c1ccccc1`, the fluorescence lifetime (in C1CCCCC1) is 2.4 ns.

Turning to `COc1ccc(C2=CC(c3cc(OC)cc(OC)c3)=[O+][B-](F)(F)O2)cc1`, the fluorescence lifetime (in ClCCl) came to 7.4 ns.

Turning to `CCCCCCCCCCCCN1C(=O)c2cccc3c(N(Cc4ccccn4)Cc4ccccn4)c4ccccc4c(c23)C1=O`, the fluorescence lifetime (in CCO) came to 5.52 ns.

`COc1ccc2c(c1)C(=O)c1ccccc1-2`: the fluorescence lifetime reads like this: (in C1CCCCC1) 9.9 ns; (in CC#N) 1.8 ns.

On to `Cn1c2ccc(S(=O)(=O)O)cc2c(=O)c2cc(S(=O)(=O)O)ccc21`, for which the fluorescence lifetime runs as follows: (in CS(C)=O) 10.6 ns; (in O) 16.7 ns.

Take `COc1ccc2c(c1)CCC1=C(C#Cc3ccc(Cl)cc3)O[B-](F)(F)[O+]=C12`: the fluorescence lifetime (in ClCCl) worked out at 2.53 ns.

As for `C(=C\c1ccc(N(c2ccccc2)c2ccccc2)cc1)/c1ccc(/C=C/c2ccc(N(c3ccccc3)c3ccccc3)cc2)cc1`, the fluorescence lifetime was 1.25 ns (in C1CCOC1), 1.53 ns (in CS(C)=O) and 0.99 ns (in Cc1ccccc1).

For the compound `CCCC1(CCC)c2cc(C=C(C#Cc3ccccc3)C#Cc3ccccc3)ccc2-c2ccc(C=C(C#Cc3ccccc3)C#Cc3ccccc3)cc21`, the fluorescence lifetime (in ClC(Cl)Cl) turned out to be 0.6 ns.

In turn, `CCCCCCCCCCCCn1cccc1/C=C/c1cc(OCCCC)c(/C=C/c2cccn2CCCCCCCCCCCC)cc1OCCCC` yielded a fluorescence lifetime (in Cc1ccccc1) of 1.26 ns.

For the compound `CN(C)c1ccc(/C=C2\CC/C(=C\c3ccc(C#N)cc3)C2=O)cc1`, the fluorescence lifetime by setting is: (in C1CCOC1) 0.18 ns; (in CC#N) 0.17 ns; (in CC(C)=O) 0.23 ns; (in CC(C)O) 0.21 ns; (in CCCCO) 0.22 ns; (in CCCCOC(C)=O) 1.01 ns. The fluorescence lifetime is, setting by setting: (in CCCO) 0.18 ns; (in CCO) 0.14 ns; (in CCOC(=O)c1ccccc1) 1.24 ns; (in CCOC(C)=O) 0.9 ns; (in CCOCC) 0.89 ns; (in CN(C)C=O) 0.18 ns. The fluorescence lifetime runs as follows: (in CO) 0.13 ns; (in CS(C)=O) 0.19 ns; (in Cc1ccccc1) 0.56 ns; (in ClC(Cl)(Cl)Cl) 0.17 ns; (in ClC(Cl)Cl) 2.08 ns; (in ClCCl) 1.29 ns. For the same compound, the fluorescence lifetime by setting is: (in Clc1ccccc1Cl) 2.18 ns; (in O=C1CCCC1) 0.31 ns; (in S=C=S) 0.28 ns; (in c1ccccc1) 0.76 ns; (in c1ccncc1) 0.41 ns.

As to `Cc1cc(N(C)C)cc(C)c1/C=C/C=C/c1ccc(C#N)cc1`, the fluorescence lifetime reads like this: (in C1CCOC1) 0.51 ns; (in CC#N) 0.61 ns; (in CCCCCC) 0.29 ns; (in CCCCOCCCC) 0.38 ns; (in CCO) 0.58 ns; (in CCOCC) 0.49 ns.

Under “in C1CCCCC1”, `COC(=O)c1noc(-c2ccccc2)c1Cl` came in with a fluorescence lifetime of 0.67 ns.

Under “in CN(C)C=O”, `O=C1NC(=O)c2ccc3c4ccc5c6c(ccc(c7ccc1c2c73)c64)C(=O)N(c1ccc(O)cc1)C5=O` had a fluorescence lifetime of 2.8 ns.

For `c1ccc(-c2nc(-c3ccc(-c4ccc(-c5ccc(-c6nc(-c7ccccc7)c(-c7ccccc7)o6)cc5)cc4)cc3)oc2-c2ccccc2)cc1`, the fluorescence lifetime (in C1COCCO1) amounted to 0.78 ns.

`N[C@@H](Cc1ccc(O)cc1)C(=O)O` registered a fluorescence lifetime (in O) of 3.27 ns.

On to `CN(C)c1ccc(/C=C/C=C2\CC/C(=C\c3ccc(N(C)C)cc3)C2=O)cc1`, for which the fluorescence lifetime stood at 0.42 ns (in C1CCOC1); 0.91 ns (in CC#N); 1.15 ns (in CC(C)=O); 1.24 ns (in CC(C)O); 1.25 ns (in CCCCO); 0.63 ns (in CCCCOC(C)=O). The fluorescence lifetime runs as follows: (in CCCO) 1.13 ns; (in CCO) 0.82 ns; (in CCOC(=O)c1ccccc1) 0.83 ns; (in CCOC(C)=O) 0.71 ns; (in CCOCC) 0.31 ns; (in CN(C)C=O) 1.32 ns. The fluorescence lifetime turned out to be 0.3 ns (in CO); 1.4 ns (in CS(C)=O); 0.36 ns (in Cc1ccccc1); 0.29 ns (in ClC(Cl)(Cl)Cl); 0.98 ns (in ClC(Cl)Cl); 1.13 ns (in ClCCl). Moreover, the fluorescence lifetime runs as follows: (in Clc1ccccc1Cl) 0.83 ns; (in S=C=S) 0.43 ns; (in c1ccccc1) 0.38 ns; (in c1ccncc1) 1.26 ns.

Under “in ClCCl”, `c1ccc2c(c1)OP1(=NP(Oc3ccc4ccc5cccc6ccc3c4c56)(Oc3ccc4ccc5cccc6ccc3c4c56)=NP(Oc3ccc4ccc5cccc6ccc3c4c56)(Oc3ccc4ccc5cccc6ccc3c4c56)=N1)Oc1ccccc1-2` yielded a fluorescence lifetime of 1.23 ns.

For the compound `CCN(CC)c1ccc(OC)c(C=O)c1`, the fluorescence lifetime runs as follows: (in CC#N) 12.5 ns; (in CC(C)O) 0.96 ns; (in CCCCCC) 7.78 ns; (in CCOC(C)=O) 12.5 ns; (in CS(C)=O) 20.9 ns; (in Cc1ccccc1) 12.5 ns. The compound also had a fluorescence lifetime (in ClCCl) of 17 ns.

For the compound `CCOC(=O)c1ccc2c(c1)sc1c3ccc(C(=O)OCC)cc3sc21`, under “in CCCO”, the fluorescence lifetime is 0.35 ns.

As to `O=C([O-])c1ccccc1-c1c2ccc(=O)cc-2oc2cc([O-])ccc12`, the fluorescence lifetime is 4.36 ns (in CC(C)O); 4.52 ns (in CCCCCCCCO); 4.48 ns (in CCCCCCO); 4.4 ns (in CCCCO); 4.42 ns (in CCCO); 4.25 ns (in CCO). The fluorescence lifetime amounted to 4.28 ns (in CO), 4.16 ns (in O) and 4.36 ns (in [2H]O[2H]).

With `c1ccc(-c2nc3c(c4c2-c2ccccc2CC4)-c2ccccc2CC3)cc1`, the fluorescence lifetime (in CC#N) was found to be 1.39 ns, the fluorescence lifetime (in CCCCCC) amounted to 0.26 ns, the fluorescence lifetime (in CO) stood at 0.29 ns and the fluorescence lifetime (in CS(C)=O) came to 0.51 ns.

With `C=Cc1cc2ccccc2oc1=O`, the fluorescence lifetime (in CC#N) amounted to 0.39 ns.

Turning to `Cc1cccc(C)c1/C=C/c1nc(N2CCOCC2)c2c([n+]1[O-])CCCC2`, the fluorescence lifetime (in ClCCl) turned out to be 9.1 ns.

As to `Cc1ccc(-c2ccccc2)cc1`, where the note is “in C1CCCCC1”, the fluorescence lifetime is 20 ns.

Where the note is “in ClCCl”, `ClP1(Cl)=N[P@@](Cl)(Oc2ccc3ccc4cccc5ccc2c3c45)=N[P@@](Cl)(Oc2ccc3ccc4cccc5ccc2c3c45)=N1` registered a fluorescence lifetime of 2.02 ns.

As to `COC(=O)C12N=N[C@](C(=O)OC)(C3C4CCC(C4)C31)[C@@]1(C)C[C@@H]21` (some centres not stated), under “in CC#N”, the fluorescence lifetime came out at 116 ns.

For `C(=C\c1cc(-c2ccc3ccccc3c2)c(/C=C/c2ccc(N(c3ccccc3)c3ccccc3)cc2)cc1-c1ccc2ccccc2c1)/c1ccc(N(c2ccccc2)c2ccccc2)cc1`, the fluorescence lifetime (in ClCCl) was found to be 1.17 ns.

The compound `CCCCCCN1C(=O)c2cccc3c(-c4ccc(Cl)s4)ccc(c23)C1=O` gave a fluorescence lifetime (in ClC(Cl)Cl) of 0.0093 ns.

`COc1ccc(-c2csc(/C(C#N)=C/c3ccccc3Cl)n2)cc1` returned a fluorescence lifetime (in CC#N) of 3.93 ns.

Consider `CC1=CC(C)=[N+]2C1=C(c1ccccc1)c1c(C)c(-c3cccs3)c(C)n1[B-]2(F)F`, for which the fluorescence lifetime (in Cc1ccccc1) came out at 3.2 ns.

`Cc1cc(C)c(B(c2c(C)cc(C)cc2C)c2cc3cccc4c(B(c5c(C)cc(C)cc5C)c5c(C)cc(C)cc5C)cc5cccc2c5c34)c(C)c1` had a fluorescence lifetime (in CCCCCC) of 5 ns.

Compound `C[Si]1(C)c2cc(-c3cccs3)ccc2C=Cc2ccc(-c3cccs3)cc21` returned a fluorescence lifetime (in ClCCl) of 1.4 ns.

Source of the values: the Deep4Chem optical property database.
